In patent US10358434B2, “2-(3-pyridinyl)-1H-benzimidazole derivative compound and medicament containing same” (NIHON MEDI-PHYSICS CO., LTD., priority 2014, dated 2019):

Assays:
[1] = In vivo kinetics experiment (radioactivity distribution); design: species or system Wistar male rat; details: rat, caudal vein
How it was run: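 Male Wistar rats (9 weeks) under isoflurane received approximately 1 to 3.7 MBq radiotracer in saline with 1 w/v % ascorbic acid by tail-vein injection. At 10, 30 and 60 min, rats were exsanguinated; blood, organs and remaining body weighed and counted, giving % ID/g and adrenal-to-tissue ratios.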

[2] = test system: human adrenal gland section expressing aldosterone-producing adenoma; assay: In vitro autoradiography using human adrenal adenoma; type: binding; details: section of FIG. 17(a)
How it was run: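 Frozen 7-μm sections of human adrenal bearing aldosterone-producing adenoma were immersed 10 min in radioligand (5-33 kBq/mL) in PBS with 1% fatty-acid-free BSA, washed, then exposed to imaging plates for 16-20 h. Equal-area ROI PSL in adenoma (B2) versus normal cortex (B1) gave B2/B1, corrected for nuclide half-life, added activity and exposure time.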

[3] = Plasma stability evaluation (TLC analysis); type: in vitro ADME; details: 37° C., 60 minutes, TLC analysis
How it was run: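 Radiolabelled compounds were incubated in heparin-treated pooled normal human plasma at 37° C for 60 minutes. After methanol deproteinization and centrifugation, stability was assessed by TLC under the conditions used for each compound's synthesis.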

For “Methyl 1-[4-(1-cyclopropyl-6-[^123I]iodo-1H-imidazobenzo-2-yl)-3-pyridinylmethyl)]-1H-imidazolecarboxylate [[^123I] 601]”, the “Adrenal gland/blood ratio of radioactivity accumulation” value (“Adrenal gland/blood ratio” for short) ([1]; 10 min after administration) was 49.76 ± 8.04, the “Adrenal gland/fat ratio of radioactivity accumulation” value (from here on “Adrenal gland/fat ratio”) ([1]; 10 min after administration) was 48.18 ± 26.02 and the “Adrenal gland/kidney ratio of radioactivity accumulation” value (“Adrenal gland/kidney ratio” below) ([1]; 10 min after administration) was 11.53 ± 2.04. For the same substance, the “Adrenal gland/liver ratio of radioactivity accumulation” value (from here on “Adrenal gland/liver ratio”) ([1]; 10 min after administration) was 3.21 ± 0.44, the “Adrenal gland/muscle ratio of radioactivity accumulation” value (from here on “Adrenal gland/muscle ratio”) ([1]; 10 min after administration) was 51.74 ± 11.28 and the “Adrenal gland/small intestine ratio of radioactivity accumulation” value (shortened to “Adrenal gland/small intestine ratio”) ([1]; 10 min after administration) was 6.93 ± 2.04. The “Radioactivity distribution Adrenal gland” value ([1]; 10 min after administration) was 13.40 ± 2.41 % ID/g, the “Radioactivity distribution Bladder (including urine)” value (“Radioactivity distribution Bladder” for short) ([1]; 10 min after administration) was 0.65 ± 0.26 % ID/g and the “Radioactivity distribution Blood” value ([1]; 10 min after administration) was 0.27 ± 0.01 % ID/g. The “Radioactivity distribution Fat” value ([1]; 10 min after administration) was 0.34 ± 0.16 % ID/g, the “Radioactivity distribution Heart” value ([1]; 10 min after administration) was 0.61 ± 0.03 % ID/g and the “Radioactivity distribution Kidney” value ([1]; 10 min after administration) was 1.16 ± 0.02 % ID/g. The “Radioactivity distribution Large intestine” value ([1]; 10 min after administration) was 0.14 ± 0.01 % ID/g, the “Radioactivity distribution Liver” value ([1]; 10 min after administration) was 4.15 ± 0.27 % ID/g and the “Radioactivity distribution Lung” value ([1]; 10 min after administration) was 0.54 ± 0.01 % ID/g. The “Radioactivity distribution Muscle (lower limbs)” value ([1]; 10 min after administration) was 0.26 ± 0.02 % ID/g, the “Radioactivity distribution Remaining whole body” value ([1]; 10 min after administration) was 0.30 ± 0.01 % ID/g and the “Radioactivity distribution Small intestine” value ([1]; 10 min after administration) was 1.99 ± 0.27 % ID/g. The “Radioactivity distribution Spleen” value ([1]; 10 min after administration) was 0.51 ± 0.02 % ID/g, the “Radioactivity distribution Stomach” value ([1]; 10 min after administration) was 0.83 ± 0.25 % ID/g and the “Radioactivity distribution Testis” value ([1]; 10 min after administration) was 0.32 ± 0.01 % ID/g. For the same substance, the “Radioactivity distribution Thyroid gland” value ([1]; 10 min after administration) was 0.62 ± 0.09 % ID/g, the “Radioactivity distribution Whole brain” value ([1]; 10 min after administration) was 0.15 ± 0.01 % ID/g and the “Adrenal gland/blood ratio” value ([1]; 30 min after administration) was 88.31 ± 19.36. For the same substance, the “Adrenal gland/fat ratio” value ([1]; 30 min after administration) was 34.33 ± 3.72, the “Adrenal gland/kidney ratio” value ([1]; 30 min after administration) was 28.94 ± 22.29 and the “Adrenal gland/liver ratio” value ([1]; 30 min after administration) was 6.49 ± 1.59. The “Adrenal gland/muscle ratio” value ([1]; 30 min after administration) was 72.90 ± 18.29, the “Adrenal gland/small intestine ratio” value ([1]; 30 min after administration) was 3.30 ± 0.96 and the “Radioactivity distribution Adrenal gland” value ([1]; 30 min after administration) was 17.21 ± 1.46 % ID/g. For the same substance, the “Radioactivity distribution Bladder” value ([1]; 30 min after administration) was 0.41 ± 0.03 % ID/g, the “Radioactivity distribution Blood” value ([1]; 30 min after administration) was 0.20 ± 0.03 % ID/g and the “Radioactivity distribution Fat” value ([1]; 30 min after administration) was 0.50 ± 0.03 % ID/g. The “Radioactivity distribution Heart” value ([1]; 30 min after administration) was 0.42 ± 0.08 % ID/g, the “Radioactivity distribution Kidney” value ([1]; 30 min after administration) was 0.80 ± 0.39 % ID/g and the “Radioactivity distribution Large intestine” value ([1]; 30 min after administration) was 0.15 ± 0.01 % ID/g. For the same substance, the “Radioactivity distribution Liver” value ([1]; 30 min after administration) was 2.71 ± 0.39 % ID/g, the “Radioactivity distribution Lung” value ([1]; 30 min after administration) was 0.43 ± 0.07 % ID/g and the “Radioactivity distribution Muscle (lower limbs)” value ([1]; 30 min after administration) was 0.24 ± 0.04 % ID/g. For the same substance, the “Radioactivity distribution Remaining whole body” value ([1]; 30 min after administration) was 0.24 ± 0.03 % ID/g, the “Radioactivity distribution Small intestine” value ([1]; 30 min after administration) was 5.54 ± 1.72 % ID/g and the “Radioactivity distribution Spleen” value ([1]; 30 min after administration) was 0.35 ± 0.07 % ID/g. The “Radioactivity distribution Stomach” value ([1]; 30 min after administration) was 0.86 ± 0.23 % ID/g, the “Radioactivity distribution Testis” value ([1]; 30 min after administration) was 0.31 ± 0.05 % ID/g and the “Radioactivity distribution Thyroid gland” value ([1]; 30 min after administration) was 0.69 ± 0.26 % ID/g. The “Radioactivity distribution Whole brain” value ([1]; 30 min after administration) was 0.11 ± 0.02 % ID/g, the “Adrenal gland/blood ratio” value ([1]; 60 min after administration) was 73.52 ± 21.70 and the “Adrenal gland/fat ratio” value ([1]; 60 min after administration) was 18.31 ± 9.45. For the same substance, the “Adrenal gland/kidney ratio” value ([1]; 60 min after administration) was 10.42 ± 4.49, the “Adrenal gland/liver ratio” value ([1]; 60 min after administration) was 4.79 ± 1.48 and the “Adrenal gland/muscle ratio” value ([1]; 60 min after administration) was 63.30 ± 21.65. The “Adrenal gland/small intestine ratio” value ([1]; 60 min after administration) was 0.99 ± 0.55, the “Radioactivity distribution Adrenal gland” value ([1]; 60 min after administration) was 8.87 ± 3.98 % ID/g and the “Radioactivity distribution Bladder” value ([1]; 60 min after administration) was 1.17 ± 0.51 % ID/g. The “Radioactivity distribution Blood” value ([1]; 60 min after administration) was 0.12 ± 0.02 % ID/g, the “Radioactivity distribution Fat” value ([1]; 60 min after administration) was 0.50 ± 0.09 % ID/g and the “Radioactivity distribution Heart” value ([1]; 60 min after administration) was 0.26 ± 0.05 % ID/g. The “Radioactivity distribution Kidney” value ([1]; 60 min after administration) was 0.84 ± 0.09 % ID/g, the “Radioactivity distribution Large intestine” value ([1]; 60 min after administration) was 0.14 ± 0.02 % ID/g and the “Radioactivity distribution Liver” value ([1]; 60 min after administration) was 1.80 ± 0.26 % ID/g. The “Radioactivity distribution Lung” value ([1]; 60 min after administration) was 0.26 ± 0.03 % ID/g, the “Radioactivity distribution Muscle (lower limbs)” value ([1]; 60 min after administration) was 0.14 ± 0.02 % ID/g and the “Radioactivity distribution Remaining whole body” value ([1]; 60 min after administration) was 0.15 ± 0.01 % ID/g. The “Radioactivity distribution Small intestine” value ([1]; 60 min after administration) was 9.33 ± 1.02 % ID/g, the “Radioactivity distribution Spleen” value ([1]; 60 min after administration) was 0.20 ± 0.03 % ID/g and the “Radioactivity distribution Stomach” value ([1]; 60 min after administration) was 0.50 ± 0.29 % ID/g. The “Radioactivity distribution Testis” value ([1]; 60 min after administration) was 0.22 ± 0.05 % ID/g, the “Radioactivity distribution Thyroid gland” value ([1]; 60 min after administration) was 0.93 ± 0.47 % ID/g and the “Radioactivity distribution Whole brain” value ([1]; 60 min after administration) was 0.10 ± 0.04 % ID/g. For the same substance, the B2/B1 accumulation ratio [2] was 1.05, the “B2 (PSL value, aldosterone-producing adenoma)” value ([2]; site 71a) was 3201 and the “B1 (PSL value, normal adrenal cortex)” value ([2]; site 72a) was 3040. For the same substance, the “Radiochemical purity after incubation in human plasma” value [3] was 98%.
